Experimental findings from patent US20040077531A1, “Use of galanin-like peptide” (priority 2001, published 2004) are described below.

Assay type in all cases: in vivo, rat
Assay [1] relates to pituitary hormone levels in plasma. The experiment in a line: Pituitary hormone levels in plasma after GALP administration into the third ventricle. To be noted: Wistar rats. As for the experimental part: Effects of GALP administration into the third ventricle on pituitary hormone levels in plasma were examined. Briefly, adult male Wistar rats (body weight: 350-380 g at the time of surgery) were anesthetized by intraperitoneal administration of 50 mg/kg pentobarbital and fixed in a stereotaxic apparatus for rat brain. The incisor bar was set 3.3 mm below the interaural line. The skull surface was exposed, and a hole was drilled in the skull with a dental drill in order to implant a guide cannula AG-8 (inside dia. 0.4 mm, outside dia. 0.5 mm; Eicom) in the third ventricle. Further, four anchor screws were embedded around the hole. A stainless guide cannula (AG-12) was inserted so that its tip was located above the third ventricle. The stereotaxic coordinates were set as follows according to the atlas of Paxinos and Watson (1998): AP: −0.8 mm, L: 0.0 mm, […] from bregma. The guide cannula was fixed onto the skull with instant glue, dental cement and the anchor screws. […]
The rats were allowed about one week for recovery after the implantation of the guide cannula. […] Growth hormone (GH), thyroid-stimulating hormone (TSH), follicle-stimulating hormone (FSH), LH, prolactin and adorenocorticotropic hormone (ACTH) contained in the plasma were quantified by radioimmunoassay (GH, TSH, FSH, LH and prolactin; Amersham) (ACTH; Mitsubishi Kagaku).

Assay [2] concerns blood LH levels. The experiment in a line: Blood LH level time course after intraventricular administration in freely moving Wistar rats. To be noted: for blood LH level compared with the control group: third ventricle, 0-60 min. On the procedure:
A guide cannula was implanted in adult male Wistar rats treated in the same manner as described in Example 1. The rats were allowed about one week for recovery from the surgery. Then, they received another surgery so that blood samples can be taken from them moving freely. Briefly, the guide cannula-implanted rat was anesthetized by intraperitoneal administration of […] pentobarbital and fixed on an anatomical pad in face-up position. Then, the left jugular vein was exposed. A polyethylene tube SP35 (inside dia. 0.5 mm, outside dia. 0.9 mm; Natsume Seisakusho) was cut to give an about 30 cm length, filled with 200 U/ml heparin-containing physiological saline, inserted into the jugular vein about 4.5 cm, and fixed. The other end of the tube was passed subcutaneously through dorsal skin and exposed from the neck (dorsal).
After one night from the surgery, 300 μl of blood was collected from each rat using a 1 ml injection syringe for tuberculin and a 25-gauge injection needle (both Terumo Corp.) prior to the administration of rat GALP (a peptide consisting of the amino acid sequence as shown in SEQ ID NO: 33). In order to prevent blood coagulation, 10 μl of 300 KIU/ml aprotinin solution containing 3 mg/ml EDTA was added in advance into the injection syringe. The cap nut and the dummy cannula installed on the rat skull were removed. Instead of them, a stainless microinjection cannula (inside dia. 0.17 mm, outside dia. 0.35 mm; Eicom) connected with a Teflon tube (length 50 cm, inside dia. 0.1 mm, outside dia. 0.35 mm; Eicom) was inserted into the guide cannula. The length of the microinjection cannula was adjusted in advance so that 1 mm of it tip was exposed from the guide cannula. One end of the Teflon tube was connected with a microsyringe pump. […] Five minutes after the completion of the injection, the microinjection cannula was removed, and a dummy cannula was fixed again with a cap nut. […] The LH levels in the plasma were measured by radioimmunoassay (Amersham).

The subject of assay [3] is blood LH levels. The experiment in a line: Blood LH levels after intraventricular GALP in Zucker fatty and Zucker lean rats. To be noted: 1 nmol third ventricle. On the procedure: Effects of GALP administration into the third ventricle on LH levels in plasma were examined using Zucker obese rats having an abnormality of Leptin receptor. Briefly, adult male Zucker obese rats (body weights at the time of surgery: fatty: 410-430 g; lean: 290-310 g) were anesthetized by intraperitoneal administration of 50 mg/kg pentobarbital and fixed in a stereotaxic apparatus for rat brain. The incisor bar was set 3.3 mm below the interaural line. The skull surface was exposed, and a hole was drilled in the skull with a dental drill in order to implant a guide cannula AG-8 (inside dia. 0.4 mm, outside dia. 0.5 mm; Eicom) in the third ventricle. Further, four anchor screws were embedded around the hole. A stainless guide cannula (AG-12) was inserted so that its tip was located above the third ventricle. The stereotaxic coordinates were set as follows according to the atlas of Paxinos and Watson (1998): for Zucker fatty, AP: −1.00 mm, L: 0.0 mm, H: 5.6 mm from bregma, and for Zucker lean, AP: −0.9 mm, L: 0.0 mm, H: 5.4 mm from bregma. The guide cannula was fixed onto the skull with instant glue, dental cement and the anchor screws. […]
The rats were allowed about one week for recovery after the implantation of the guide cannula. […] The LH levels in the plasma were measured by radioimmunoassay (Amersham).

Turning to “rat GALP (APAHRGRGGWTLNSAGYLLGPVLHLSSKANQGRKTDSALEILDLWKAIDGLPYSRSPRMT; Rat)”, the “blood LH level compared to the control group” value in assay [1] (0.5 nmol and 5 nmol intraventricular, 10 min after injection) is recorded as “significant increase”. For the same substance, the “other pituitary hormone levels in blood (FSH, GH, TSH, ACTH, prolactin)” value in assay [1] (intraventricular, 5 nmol/rat) is reported as “no other pituitary hormone levels were changed”. Also, the “blood LH level compared with the control group” value in assay [2] (1 nmol administration group) is reported as “tendency to rise”; in assay [2] (5 nmol administration group) it was “significant rise”. The “time of peak of blood LH rise after the administration” value in assay [2] (5 nmol administration group) amounted to 30 min. Moreover, the “blood LH levels compared with the control group” value in assay [3] (Zucker fatty rats, at 10, 20 and 30 min) is “significant rise”; in assay [3] (Zucker lean rats), “no significant rise”.
